Values after ≈ are worked out from the molar mass of the structure shown. Residues, ends and D or L forms follow the SMILES beside them.
Tests used:
Type in all cases: cell-based
P. aeruginosa 112 = system: P. aeruginosa 112
Procedure: (§1) Standard strains included S. aureus ATCC33592, S. aureus CICC25138, and Salmonella enterica ATCC14028, which were purchased from the China Center of Industrial Culture Collection (CICC). Standard strains including E.coli CMCC44102, Salmonella enterica CMCC50071, and S. aureus CMCC26003 were purchased from the National Center for Medical Culture Collections (CMCC). […] All experiments using the above strains were carried out in a BSL‐2 laboratory. The clinical laboratory of Qilu Hospital detected bacterial resistance to various antibiotics. All strains were streaked on Nutrient Broth (NB) agar medium and incubated overnight at 37°C.
(§2) The antimicrobial activity of the peptides was examined in sterile 96‐well plates using the broth microdilution according to the CLSI standard. The colonies were suspended in saline solution, the turbidity was adjusted to McFarland 0.5 to reach a bacterial concentration of 10^8 CFU/mL, and again diluted 100 times for the inhibition test. Then, 50 µL of bacterial suspension at 1 × 10^6 CFU/mL was incubated with the same volume of different concentrations of peptide solution [serial twofold dilutions in Mueller–Hinton Broth (Hopebio)]. […] All experiments were performed with three independent replicates.

K. pneumoniae 7713 = system: K. pneumoniae 7713
Procedure: as §1, §2

E.coli 208 = system: E.coli 208
Procedure: as §1, §2

E. faecium 21 = system: E. faecium 21
Procedure: as §1, §2

S. aureus ATCC33592 = system: S. aureus ATCC33592
Procedure: as §1, §2

E.coli 110 = system: E.coli 110
Procedure: as §1, §2

P. aeruginosa 119 = system: P. aeruginosa 119
Procedure: as §1, §2

S. aureus 129 = system: S. aureus 129
Procedure: as §1, §2

S. aureus CICC25138 = system: S. aureus CICC25138
Procedure: as §1, §2

E. faecium 1042 = system: E. faecium 1042
Procedure: as §1, §2

S. aureus 103 = system: S. aureus 103
Procedure: as §1, §2

P. aeruginosa 116 = system: P. aeruginosa 116
Procedure: as §1, §2

S. aureus CMCC26003 = system: S. aureus CMCC26003
Procedure: as §1, §2

E.coli CMCC44102 = system: E.coli CMCC44102
Procedure: as §1, §2

| SMILES | MIC (μg/mL) P. aeruginosa 112 (P. aeruginosa 112) | MIC (μg/mL) K. pneumoniae 7713 (K. pneumoniae 7713) | MIC (μg/mL) E.coli 208 (E.coli 208) | MIC (μg/mL) E. faecium 21 (E. faecium 21) | MIC (μg/mL) S. aureus ATCC33592 (S. aureus ATCC33592) | MIC (μg/mL) E.coli 110 (E.coli 110) | MIC (μg/mL) P. aeruginosa 119 (P. aeruginosa 119) | MIC (μg/mL) S. aureus 129 (S. aureus 129) | MIC (μg/mL) S. aureus CICC25138 (S. aureus CICC25138) | MIC (μg/mL) E. faecium 1042 (E. faecium 1042) | MIC (μg/mL) S. aureus 103 (S. aureus 103) | MIC (μg/mL) P. aeruginosa 116 (P. aeruginosa 116) | MIC (μg/mL) S. aureus CMCC26003 (S. aureus CMCC26003) | MIC (μg/mL) E.coli CMCC44102 (E.coli CMCC44102) |
| --- | --- | --- | --- | --- | --- | --- | --- | --- | --- | --- | --- | --- | --- | --- |
| CC[C@H](C)[C@H](NC(=O)[C@H](CCCCN)NC(=O)[C@H](Cc1c[nH]c2ccccc12)NC(=O)[C@@H](N)CCCCN)C(=O)N[C@@H](CCCCN)C(=O)N[C@@H](Cc1c[nH]c2ccccc12)C(=O)N[C@@H](Cc1c[nH]cn1)C(=O)N[C@H](C(=O)N[C@@H](CCCNC(=N)N)C(=O)N[C@@H](Cc1c[nH]c2ccccc12)C(=O)N[C@@H](Cc1ccccc1)C(=O)N[C@@H](CCCNC(=N)N)C(=O)N[C@H](C(=O)N[C@@H](CC(C)C)C(N)=O)C(C)C)C(C)C [QLX-3DV-10] (H-KWKIKWHVRWFRVL-NH2) | 32 µg/mL (≈ 16.1 µM) | 16 µg/mL (≈ 8.07 µM) | 32 µg/mL (≈ 16.1 µM) | 8 µg/mL (≈ 4.04 µM) | 16 µg/mL (≈ 8.07 µM) | 32 µg/mL (≈ 16.1 µM) | 64 µg/mL (≈ 32.3 µM) | 16 µg/mL (≈ 8.07 µM) | 32 µg/mL (≈ 16.1 µM) | 8 µg/mL (≈ 4.04 µM) | 8 µg/mL (≈ 4.04 µM) | 8 µg/mL (≈ 4.04 µM) |  |  |
| CC[C@H](C)[C@H](NC(=O)[C@H](CCCNC(=N)N)NC(=O)[C@H](Cc1c[nH]c2ccccc12)NC(=O)[C@H](CCCCN)NC(=O)[C@H](CCC(N)=O)NC(=O)[C@H](CCCNC(=N)N)NC(=O)[C@@H](N)CCCNC(=N)N)C(=O)N[C@@H](CC(C)C)C(=O)N[C@@H](C)C(=O)N[C@@H](CC(C)C)C(=O)N[C@@H](CC(N)=O)C(=O)N[C@H](C(=O)N[C@@H](Cc1c[nH]c2ccccc12)C(=O)N[C@@H](CCCCN)C(N)=O)[C@@H](C)CC [QLX-3DV-11] (H-RRQKWRILALNIWK-NH2) | 4 µg/mL (≈ 2.13 µM) | 8 µg/mL (≈ 4.25 µM) | 8 µg/mL (≈ 4.25 µM) | 4 µg/mL (≈ 2.13 µM) | 8 µg/mL (≈ 4.25 µM) | 4 µg/mL (≈ 2.13 µM) | 32 µg/mL (≈ 17 µM) | 4 µg/mL (≈ 2.13 µM) | 16 µg/mL (≈ 8.51 µM) | 4 µg/mL (≈ 2.13 µM) | 16 µg/mL (≈ 8.51 µM) | 32 µg/mL (≈ 17 µM) | 2 µg/mL (≈ 1.06 µM) | 4 µg/mL (≈ 2.13 µM) |
| CC(C)[C@H](N)C(=O)N[C@@H](CCCCN)C(=O)N[C@H](C(=O)N[C@@H](Cc1ccccc1)C(=O)N[C@@H](CCCNC(=N)N)C(=O)N[C@@H](Cc1ccccc1)C(=O)N[C@@H](Cc1ccc(O)cc1)C(=O)N[C@@H](Cc1c[nH]c2ccccc12)C(=O)N[C@@H](CCCCN)C(=O)N[C@@H](CCCNC(=N)N)C(=O)N[C@@H](CCCCN)C(=O)N[C@@H](CCC(N)=O)C(=O)N[C@@H](CCCNC(=N)N)C(=O)N[C@@H](Cc1ccccc1)C(N)=O)C(C)C [QLX-3DV-12] (H-VKVFRFYWKRKQRF-NH2) | 2 µg/mL (≈ 1.01 µM) | 16 µg/mL (≈ 8.05 µM) | 8 µg/mL (≈ 4.03 µM) | 4 µg/mL (≈ 2.01 µM) | 32 µg/mL (≈ 16.1 µM) | 4 µg/mL (≈ 2.01 µM) | 32 µg/mL (≈ 16.1 µM) | 16 µg/mL (≈ 8.05 µM) | 32 µg/mL (≈ 16.1 µM) | 2 µg/mL (≈ 1.01 µM) | 16 µg/mL (≈ 8.05 µM) | 8 µg/mL (≈ 4.03 µM) | 2 µg/mL (≈ 1.01 µM) | 8 µg/mL (≈ 4.03 µM) |
| CC(C)C[C@H](NC(=O)[C@H](Cc1ccccc1)NC(=O)[C@H](CCCCN)NC(=O)[C@H](Cc1c[nH]c2ccccc12)NC(=O)[C@H](Cc1c[nH]c2ccccc12)NC(=O)[C@@H]1CCCN1C(=O)[C@H](CCCNC(=N)N)NC(=O)[C@@H](NC(=O)[C@H](Cc1ccccc1)NC(=O)[C@H](CCCCN)NC(=O)[C@H](CCCNC(=N)N)NC(=O)[C@H](Cc1c[nH]c2ccccc12)NC(=O)[C@H](CCCNC(=N)N)NC(=O)[C@H](CCCCN)NC(=O)[C@H](Cc1ccc(O)cc1)NC(=O)[C@H](CCC(N)=O)NC(=O)[C@@H](N)CCCNC(=N)N)C(C)C)C(=O)N[C@@H](CCCCN)C(=O)N[C@@H](CC(=O)O)C(N)=O [QLX-3DV-14] (H-RQYKRWRKFVRPWWKFLKD-NH2) | 4 µg/mL (≈ 1.47 µM) |  | 16 µg/mL (≈ 5.88 µM) | 8 µg/mL (≈ 2.94 µM) | 8 µg/mL (≈ 2.94 µM) | 8 µg/mL (≈ 2.94 µM) | 128 µg/mL (≈ 47 µM) | 16 µg/mL (≈ 5.88 µM) | 32 µg/mL (≈ 11.8 µM) |  | 8 µg/mL (≈ 2.94 µM) | 32 µg/mL (≈ 11.8 µM) | 8 µg/mL (≈ 2.94 µM) | 4 µg/mL (≈ 1.47 µM) |
| CC[C@H](C)[C@H](NC(=O)[C@H](CC(C)C)NC(=O)[C@@H](NC(=O)[C@H](C)NC(=O)[C@@H](N)CC(C)C)C(C)C)C(=O)N[C@@H](Cc1ccccc1)C(=O)N[C@H](C(=O)N[C@@H](CCCNC(=N)N)C(=O)N[C@@H](CCCNC(=N)N)C(=O)N[C@@H](CCCCN)C(=O)N[C@@H](CCC(N)=O)C(=O)N[C@@H](CC(C)C)C(N)=O)C(C)C [QLX-3DV-17] (H-LAVLIFVRRKQL-NH2) |  |  | 16 µg/mL (≈ 11 µM) | 16 µg/mL (≈ 11 µM) | 64 µg/mL (≈ 44 µM) | 32 µg/mL (≈ 22 µM) | 64 µg/mL (≈ 44 µM) | 16 µg/mL (≈ 11 µM) | 32 µg/mL (≈ 22 µM) | 8 µg/mL (≈ 5.5 µM) | 32 µg/mL (≈ 22 µM) |  | 4 µg/mL (≈ 2.75 µM) | 8 µg/mL (≈ 5.5 µM) |
| CC[C@H](C)[C@H](NC(=O)[C@H](Cc1c[nH]c2ccccc12)NC(=O)[C@@H]1CCCN1C(=O)[C@H](CC(C)C)NC(=O)[C@H](CCCCN)NC(=O)[C@H](Cc1c[nH]c2ccccc12)NC(=O)[C@H](C)NC(=O)[C@H](CCCNC(=N)N)NC(=O)[C@H](CCC(N)=O)NC(=O)[C@H](CCC(N)=O)NC(=O)[C@@H](N)Cc1ccc(O)cc1)C(=O)N[C@@H](CC(C)C)C(=O)N[C@@H](CCCNC(=N)N)C(=O)N[C@@H](Cc1ccccc1)C(=O)N[C@@H](CC(C)C)C(=O)N[C@@H](CCCNC(=N)N)C(=O)N[C@@H](CC(C)C)C(N)=O [QLX-3DV-18] (H-YQQRAWKLPWILRFLRL-NH2) | 8 µg/mL (≈ 3.5 µM) | 64 µg/mL (≈ 28 µM) | 8 µg/mL (≈ 3.5 µM) | 8 µg/mL (≈ 3.5 µM) |  | 32 µg/mL (≈ 14 µM) | 64 µg/mL (≈ 28 µM) | 32 µg/mL (≈ 14 µM) | 16 µg/mL (≈ 7 µM) | 8 µg/mL (≈ 3.5 µM) | 16 µg/mL (≈ 7 µM) |  | 16 µg/mL (≈ 7 µM) | 16 µg/mL (≈ 7 µM) |
| CC[C@H](C)[C@H](N)C(=O)N[C@H](C(=O)N[C@H](C(=O)N[C@@H](CCCNC(=N)N)C(=O)N[C@@H](Cc1ccccc1)C(=O)N[C@@H](CC(C)C)C(=O)N[C@@H](CCCCN)C(=O)N1CCC[C@H]1C(=O)N[C@@H](CCCCN)C(=O)N[C@@H](CC(C)C)C(=O)N[C@@H](CC(C)C)C(=O)N[C@@H](CCCCN)C(=O)N[C@@H](C)C(=O)N[C@@H](CC(C)C)C(=O)N[C@@H](CCCCN)C(N)=O)[C@@H](C)CC)C(C)C [QLX-3DV-19] (H-IVIRFLKPKLLKALK-NH2) | 16 µg/mL (≈ 8.99 µM) | 32 µg/mL (≈ 18 µM) | 32 µg/mL (≈ 18 µM) | 16 µg/mL (≈ 8.99 µM) | 128 µg/mL (≈ 71.9 µM) | 8 µg/mL (≈ 4.5 µM) | 128 µg/mL (≈ 71.9 µM) | 128 µg/mL (≈ 71.9 µM) | 128 µg/mL (≈ 71.9 µM) |  | 64 µg/mL (≈ 36 µM) | 32 µg/mL (≈ 18 µM) | 4 µg/mL (≈ 2.25 µM) | 16 µg/mL (≈ 8.99 µM) |
| CC[C@H](C)[C@H](N)C(=O)N[C@@H](CCCNC(=N)N)C(=O)N1CCC[C@H]1C(=O)N[C@@H](CC(C)C)C(=O)N[C@H](C(=O)N[C@@H](CCC(N)=O)C(=O)N1CCC[C@H]1C(=O)N[C@@H](CCCNC(=N)N)C(=O)N[C@@H](Cc1ccc(O)cc1)C(=O)N[C@@H](CCCNC(=N)N)C(=O)N[C@@H](Cc1ccccc1)C(=O)N[C@@H](Cc1ccc(O)cc1)C(=O)N1CCC[C@H]1C(=O)N[C@@H](CCCNC(=N)N)C(=O)N[C@@H](CCCCN)C(=O)N[C@@H](CCCNC(=N)N)C(=O)N[C@@H](CC(C)C)C(N)=O)C(C)C [QLX-3DV-20] (H-IRPLVQPRYRFYPRKRL-NH2) | 32 µg/mL (≈ 14.2 µM) | 64 µg/mL (≈ 28.3 µM) | 16 µg/mL (≈ 7.09 µM) | 64 µg/mL (≈ 28.3 µM) |  | 32 µg/mL (≈ 14.2 µM) |  | 64 µg/mL (≈ 28.3 µM) |  | 64 µg/mL (≈ 28.3 µM) |  |  | 16 µg/mL (≈ 7.09 µM) | 16 µg/mL (≈ 7.09 µM) |

— PMC13185819, “De Novo Multi‐Mechanism Antimicrobial Peptide Design via Multimodal Deep Learning” (Advanced Science, 2026)
